Laboratory results reported in ChEMBL document CHEMBL4507294, “Data for DCP probe MSD-CYP11B2” (2021).

Key:
[1] = target: Ephrin type-A receptor 4 (Homo sapiens) (UniProt P54764); conditions: Compound concentration 1000.0 nM
[2] = target: Death-associated protein kinase 3 (Homo sapiens) (UniProt O43293); conditions: Compound concentration 1000.0 nM
[3] = test system: Phosphatidylinositol 4,5-bisphosphate 3-kinase catalytic subunit alpha isoform (Homo sapiens), P42336 [E542K]; conditions: Compound concentration 1000.0 nM
[4] = target: Mitogen-activated protein kinase 14 (Homo sapiens) (UniProt Q16539); conditions: Compound concentration 1000.0 nM
Sequence of Mitogen-activated protein kinase 14 (Homo sapiens) (Q16539 whole entry): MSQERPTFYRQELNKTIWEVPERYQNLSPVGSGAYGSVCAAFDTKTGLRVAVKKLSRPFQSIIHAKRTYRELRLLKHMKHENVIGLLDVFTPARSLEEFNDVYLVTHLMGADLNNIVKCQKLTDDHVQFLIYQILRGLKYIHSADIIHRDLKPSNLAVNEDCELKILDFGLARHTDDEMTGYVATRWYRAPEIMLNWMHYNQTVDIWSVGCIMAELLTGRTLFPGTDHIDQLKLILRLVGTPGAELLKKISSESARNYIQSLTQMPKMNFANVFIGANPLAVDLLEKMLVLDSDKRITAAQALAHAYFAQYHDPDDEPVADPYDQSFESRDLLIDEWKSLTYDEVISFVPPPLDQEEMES

[5] = target: Serine/threonine-protein kinase 3 (Homo sapiens) (UniProt Q13188); conditions: Compound concentration 1000.0 nM
Sequence of Serine/threonine-protein kinase 3 (Homo sapiens) (Q13188 whole entry): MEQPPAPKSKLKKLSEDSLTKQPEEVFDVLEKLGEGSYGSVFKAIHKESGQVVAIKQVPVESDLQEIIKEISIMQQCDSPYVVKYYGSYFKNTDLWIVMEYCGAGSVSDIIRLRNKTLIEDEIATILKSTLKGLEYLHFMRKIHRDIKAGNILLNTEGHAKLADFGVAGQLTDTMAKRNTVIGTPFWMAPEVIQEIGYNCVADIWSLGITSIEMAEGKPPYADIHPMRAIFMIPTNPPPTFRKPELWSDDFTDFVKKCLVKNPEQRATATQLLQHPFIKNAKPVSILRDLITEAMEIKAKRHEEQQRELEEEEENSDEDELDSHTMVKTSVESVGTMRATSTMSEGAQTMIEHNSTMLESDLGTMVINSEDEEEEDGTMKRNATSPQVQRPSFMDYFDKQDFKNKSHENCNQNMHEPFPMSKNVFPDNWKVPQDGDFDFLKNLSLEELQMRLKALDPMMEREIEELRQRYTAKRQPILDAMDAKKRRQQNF

[6] = target: Testis-specific serine/threonine-protein kinase 1 (Homo sapiens) (UniProt Q9BXA7); conditions: Compound concentration 1000.0 nM
[7] = target: 5-hydroxytryptamine receptor 6 (Homo sapiens, UniProt P50406); conditions: Compound concentration 10.0 uM
[8] = target: 5-hydroxytryptamine receptor 1D (Homo sapiens) (UniProt P28221); conditions: Compound concentration 10.0 uM
[9] = target: Myosin light chain kinase 2, skeletal/cardiac muscle (Homo sapiens) (UniProt Q9H1R3); conditions: Compound concentration 1000.0 nM
[10] = target: Maternal embryonic leucine zipper kinase (Homo sapiens) (UniProt Q14680); conditions: Compound concentration 1000.0 nM
[11] = target: Activin receptor type-1 (Homo sapiens) (UniProt Q04771); conditions: Compound concentration 1000.0 nM
[12] = target: 5-hydroxytryptamine receptor 2B (Homo sapiens, UniProt P41595); assay: GPCRScan assay: inhibition of 5-HT2B; parameters: radioligand conc. used [nm] 1.0 – 2.0, parental cells stable HEK
[13] = target: Serine/threonine-protein kinase TNNI3K (Homo sapiens) (UniProt Q59H18); conditions: Compound concentration 1000.0 nM
[14] = target: Tyrosine-protein kinase TXK (Homo sapiens) (UniProt P42681); conditions: Compound concentration 1000.0 nM
[15] = target: Wee1-like protein kinase 2 (Homo sapiens) (UniProt P0C1S8); conditions: Compound concentration 1000.0 nM
[16] = target: Tyrosine-protein kinase Fgr (Homo sapiens) (UniProt P09769); conditions: Compound concentration 1000.0 nM
Sequence of Tyrosine-protein kinase Fgr (Homo sapiens) (P09769 2-529 limits assumed): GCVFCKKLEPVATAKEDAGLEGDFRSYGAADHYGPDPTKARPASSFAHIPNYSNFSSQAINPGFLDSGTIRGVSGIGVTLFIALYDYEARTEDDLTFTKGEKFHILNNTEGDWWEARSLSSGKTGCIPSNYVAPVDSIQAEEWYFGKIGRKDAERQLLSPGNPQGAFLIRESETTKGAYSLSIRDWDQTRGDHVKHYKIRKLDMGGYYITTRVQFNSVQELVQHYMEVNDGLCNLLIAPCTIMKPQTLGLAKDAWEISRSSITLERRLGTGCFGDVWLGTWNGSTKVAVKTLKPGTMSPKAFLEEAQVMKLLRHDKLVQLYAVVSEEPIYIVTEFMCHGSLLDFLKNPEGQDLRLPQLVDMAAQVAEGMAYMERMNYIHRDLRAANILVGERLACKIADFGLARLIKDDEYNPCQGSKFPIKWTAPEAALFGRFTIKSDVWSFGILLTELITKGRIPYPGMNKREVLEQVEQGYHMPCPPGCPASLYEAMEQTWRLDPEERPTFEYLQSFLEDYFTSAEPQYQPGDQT

[17] = target: Ribosomal protein S6 kinase alpha-6 (Homo sapiens) (UniProt Q9UK32); conditions: Compound concentration 1000.0 nM
[18] = target: Fibroblast growth factor receptor 3 (Homo sapiens) (UniProt P22607); conditions: Compound concentration 1000.0 nM
[19] = target: Focal adhesion kinase 1 (Homo sapiens) (UniProt Q05397); conditions: Compound concentration 1000.0 nM
[20] = target: Serine/threonine-protein kinase PknB (Mycobacterium tuberculosis) (UniProt P9WI81); conditions: Compound concentration 1000.0 nM
[21] = target: Mitogen-activated protein kinase kinase kinase 10 (Homo sapiens) (UniProt Q02779); conditions: Compound concentration 1000.0 nM
[22] = target: Phosphatidylinositol 4-phosphate 5-kinase type-1 alpha (Homo sapiens) (UniProt Q99755); conditions: Compound concentration 1000.0 nM
[23] = target: Ephrin type-B receptor 6 (Homo sapiens) (UniProt O15197); conditions: Compound concentration 1000.0 nM
Sequence of Ephrin type-B receptor 6 (Homo sapiens) (O15197 whole entry): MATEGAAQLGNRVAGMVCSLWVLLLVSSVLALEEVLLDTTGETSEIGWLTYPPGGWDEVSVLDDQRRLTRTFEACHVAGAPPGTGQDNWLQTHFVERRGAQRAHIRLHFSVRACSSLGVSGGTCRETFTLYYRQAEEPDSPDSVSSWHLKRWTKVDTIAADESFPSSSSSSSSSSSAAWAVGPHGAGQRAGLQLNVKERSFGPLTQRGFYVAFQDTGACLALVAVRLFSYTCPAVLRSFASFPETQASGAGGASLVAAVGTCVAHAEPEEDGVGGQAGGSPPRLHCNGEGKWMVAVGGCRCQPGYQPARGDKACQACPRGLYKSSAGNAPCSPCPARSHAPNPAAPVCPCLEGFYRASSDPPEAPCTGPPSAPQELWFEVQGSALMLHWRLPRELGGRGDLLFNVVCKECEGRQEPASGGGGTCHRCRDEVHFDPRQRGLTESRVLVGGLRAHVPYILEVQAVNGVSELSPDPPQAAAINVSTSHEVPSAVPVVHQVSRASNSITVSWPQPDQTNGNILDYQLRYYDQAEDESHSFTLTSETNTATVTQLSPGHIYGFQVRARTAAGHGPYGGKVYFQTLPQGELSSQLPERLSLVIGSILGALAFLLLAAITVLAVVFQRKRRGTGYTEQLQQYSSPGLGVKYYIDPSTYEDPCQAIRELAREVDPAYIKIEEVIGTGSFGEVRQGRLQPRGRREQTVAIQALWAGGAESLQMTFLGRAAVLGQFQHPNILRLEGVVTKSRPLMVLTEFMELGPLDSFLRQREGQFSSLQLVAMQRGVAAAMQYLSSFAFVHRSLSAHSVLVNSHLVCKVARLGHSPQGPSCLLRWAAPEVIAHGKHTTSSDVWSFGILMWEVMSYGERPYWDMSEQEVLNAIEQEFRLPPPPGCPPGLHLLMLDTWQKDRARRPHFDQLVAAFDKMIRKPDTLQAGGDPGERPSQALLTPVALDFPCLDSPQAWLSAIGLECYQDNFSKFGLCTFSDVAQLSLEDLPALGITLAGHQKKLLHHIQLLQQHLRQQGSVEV

[24] = target: Mitogen-activated protein kinase kinase kinase kinase 4 (Homo sapiens) (UniProt O95819); conditions: Compound concentration 1000.0 nM
[25] = target: Phosphatidylinositol 3-kinase C2 domain-containing subunit gamma (Homo sapiens) (UniProt O75747); conditions: Compound concentration 1000.0 nM
[26] = target: Cyclin-dependent kinase-like 1 (Homo sapiens) (UniProt Q00532); conditions: Compound concentration 1000.0 nM
[27] = target: Cyclin-dependent kinase 2 homolog (Plasmodium falciparum (isolate 3D7)) (UniProt P61075); conditions: Compound concentration 1000.0 nM
[28] = target: SRSF protein kinase 3 (Homo sapiens) (UniProt Q9UPE1); conditions: Compound concentration 1000.0 nM
[29] = target: T1, 5-hydroxytryptamine receptor 2C (Homo sapiens) (UniProt P28335); conditions: Compound concentration 10.0 uM
T1 sequence (whole entry): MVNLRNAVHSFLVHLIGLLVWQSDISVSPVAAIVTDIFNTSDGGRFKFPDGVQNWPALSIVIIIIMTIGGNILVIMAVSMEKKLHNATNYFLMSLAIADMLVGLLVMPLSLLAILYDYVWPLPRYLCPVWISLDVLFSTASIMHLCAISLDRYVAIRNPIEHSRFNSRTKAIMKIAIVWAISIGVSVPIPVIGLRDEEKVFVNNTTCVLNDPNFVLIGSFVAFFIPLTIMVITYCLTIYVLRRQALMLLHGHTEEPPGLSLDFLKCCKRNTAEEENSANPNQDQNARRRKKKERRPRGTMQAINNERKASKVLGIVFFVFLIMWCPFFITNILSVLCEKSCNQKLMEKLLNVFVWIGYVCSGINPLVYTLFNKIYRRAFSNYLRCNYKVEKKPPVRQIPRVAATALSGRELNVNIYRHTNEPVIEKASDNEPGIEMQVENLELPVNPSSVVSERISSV

[30] = target: AP2-associated protein kinase 1 (Homo sapiens) (UniProt Q2M2I8); conditions: Compound concentration 1000.0 nM
[31] = test system: ALK tyrosine kinase receptor (Homo sapiens), Q9UM73 [L1196M]; conditions: Compound concentration 1000.0 nM
Sequence of ALK tyrosine kinase receptor (Homo sapiens), Q9UM73 [L1196M] (Q9UM73 whole entry L1196M, looked up): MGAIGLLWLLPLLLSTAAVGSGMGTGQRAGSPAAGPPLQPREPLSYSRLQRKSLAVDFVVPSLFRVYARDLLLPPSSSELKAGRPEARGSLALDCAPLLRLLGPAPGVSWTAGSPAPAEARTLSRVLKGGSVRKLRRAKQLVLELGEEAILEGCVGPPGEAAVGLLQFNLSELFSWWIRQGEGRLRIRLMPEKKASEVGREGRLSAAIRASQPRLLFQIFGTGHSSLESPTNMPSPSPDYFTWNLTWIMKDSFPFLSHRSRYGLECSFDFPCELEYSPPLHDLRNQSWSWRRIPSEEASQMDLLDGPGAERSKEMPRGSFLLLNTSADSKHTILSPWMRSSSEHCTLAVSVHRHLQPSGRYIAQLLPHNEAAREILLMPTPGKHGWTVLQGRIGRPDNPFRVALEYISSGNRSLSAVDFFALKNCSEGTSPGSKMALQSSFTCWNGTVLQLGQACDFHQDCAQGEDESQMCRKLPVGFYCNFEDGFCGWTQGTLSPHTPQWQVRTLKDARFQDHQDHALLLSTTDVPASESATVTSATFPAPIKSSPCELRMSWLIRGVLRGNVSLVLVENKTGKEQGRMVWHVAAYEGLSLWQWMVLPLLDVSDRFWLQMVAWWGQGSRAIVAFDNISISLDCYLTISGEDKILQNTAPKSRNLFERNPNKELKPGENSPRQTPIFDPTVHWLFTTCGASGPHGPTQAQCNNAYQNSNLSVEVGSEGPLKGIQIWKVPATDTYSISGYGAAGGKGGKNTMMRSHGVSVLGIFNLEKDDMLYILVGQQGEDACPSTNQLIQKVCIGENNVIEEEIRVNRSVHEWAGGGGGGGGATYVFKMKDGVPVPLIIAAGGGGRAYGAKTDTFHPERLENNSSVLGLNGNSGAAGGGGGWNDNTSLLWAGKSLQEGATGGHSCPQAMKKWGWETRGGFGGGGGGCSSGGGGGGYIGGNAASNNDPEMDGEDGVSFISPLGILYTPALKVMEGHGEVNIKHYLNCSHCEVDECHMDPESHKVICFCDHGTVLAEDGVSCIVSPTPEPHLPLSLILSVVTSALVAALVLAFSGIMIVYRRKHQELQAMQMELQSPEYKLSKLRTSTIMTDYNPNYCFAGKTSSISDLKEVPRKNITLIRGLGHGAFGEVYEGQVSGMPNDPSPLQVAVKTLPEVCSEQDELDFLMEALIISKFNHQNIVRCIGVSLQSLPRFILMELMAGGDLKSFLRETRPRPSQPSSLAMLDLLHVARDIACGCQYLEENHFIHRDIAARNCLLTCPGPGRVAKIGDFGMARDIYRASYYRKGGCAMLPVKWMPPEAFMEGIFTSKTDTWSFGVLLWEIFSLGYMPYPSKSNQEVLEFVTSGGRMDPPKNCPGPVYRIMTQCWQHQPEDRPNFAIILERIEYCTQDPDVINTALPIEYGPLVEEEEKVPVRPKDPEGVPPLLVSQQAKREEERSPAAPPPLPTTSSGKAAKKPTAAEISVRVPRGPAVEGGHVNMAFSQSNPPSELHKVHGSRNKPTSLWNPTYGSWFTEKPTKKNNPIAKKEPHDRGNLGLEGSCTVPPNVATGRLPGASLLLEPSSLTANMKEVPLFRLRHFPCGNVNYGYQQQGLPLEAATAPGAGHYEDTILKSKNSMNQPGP

[32] = target: Calcium/calmodulin-dependent protein kinase type II subunit beta (Homo sapiens) (UniProt Q13554); conditions: Compound concentration 1000.0 nM
[33] = target: Bone morphogenetic protein receptor type-2 (Homo sapiens) (UniProt Q13873); conditions: Compound concentration 1000.0 nM
[34] = target: Phosphatidylinositol 4,5-bisphosphate 3-kinase catalytic subunit alpha isoform (Homo sapiens) (UniProt P42336); conditions: Compound concentration 1000.0 nM
[35] = target: Serine/threonine-protein kinase Chk1 (Homo sapiens) (UniProt O14757); conditions: Compound concentration 1000.0 nM
[36] = target: 5'-AMP-activated protein kinase catalytic subunit alpha-1 (Homo sapiens) (UniProt Q13131); conditions: Compound concentration 1000.0 nM
Sequence of 5'-AMP-activated protein kinase catalytic subunit alpha-1 (Homo sapiens) (Q13131 whole entry, looked up): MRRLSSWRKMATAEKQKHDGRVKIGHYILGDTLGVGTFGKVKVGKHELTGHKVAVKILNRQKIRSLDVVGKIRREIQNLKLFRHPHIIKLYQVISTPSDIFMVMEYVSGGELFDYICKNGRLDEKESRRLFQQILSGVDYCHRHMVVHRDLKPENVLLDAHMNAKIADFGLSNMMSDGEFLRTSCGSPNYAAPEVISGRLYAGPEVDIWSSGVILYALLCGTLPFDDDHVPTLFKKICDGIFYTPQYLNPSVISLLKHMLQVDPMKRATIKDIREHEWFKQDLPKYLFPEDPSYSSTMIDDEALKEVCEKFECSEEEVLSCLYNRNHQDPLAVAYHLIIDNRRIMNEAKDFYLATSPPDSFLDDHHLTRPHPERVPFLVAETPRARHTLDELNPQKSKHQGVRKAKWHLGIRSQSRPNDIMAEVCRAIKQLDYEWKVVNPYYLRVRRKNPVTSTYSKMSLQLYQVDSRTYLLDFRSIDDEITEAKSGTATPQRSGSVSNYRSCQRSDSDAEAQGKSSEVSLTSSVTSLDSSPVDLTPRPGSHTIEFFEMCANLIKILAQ

[37] = target: Cyclin-dependent kinase-like 2 (Homo sapiens) (UniProt Q92772); conditions: Compound concentration 1000.0 nM
Sequence of Cyclin-dependent kinase-like 2 (Homo sapiens) (Q92772 whole entry): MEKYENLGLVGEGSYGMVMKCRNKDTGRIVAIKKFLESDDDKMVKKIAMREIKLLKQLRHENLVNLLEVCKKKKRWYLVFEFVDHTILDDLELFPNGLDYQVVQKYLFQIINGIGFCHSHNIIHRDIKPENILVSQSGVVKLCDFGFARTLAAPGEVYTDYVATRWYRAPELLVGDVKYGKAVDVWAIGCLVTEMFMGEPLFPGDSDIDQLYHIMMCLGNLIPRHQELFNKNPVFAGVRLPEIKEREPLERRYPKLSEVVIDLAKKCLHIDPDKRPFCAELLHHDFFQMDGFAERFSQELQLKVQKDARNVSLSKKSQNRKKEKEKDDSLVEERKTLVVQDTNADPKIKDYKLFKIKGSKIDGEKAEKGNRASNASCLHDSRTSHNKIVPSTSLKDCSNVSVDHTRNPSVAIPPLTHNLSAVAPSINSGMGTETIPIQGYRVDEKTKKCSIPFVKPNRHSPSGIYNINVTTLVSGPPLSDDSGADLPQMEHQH

[38] = target: Serine/threonine-protein kinase NIM1 (Homo sapiens) (UniProt Q8IY84); conditions: Compound concentration 1000.0 nM
[39] = target: Dual specificity tyrosine-phosphorylation-regulated kinase 1B (Homo sapiens) (UniProt Q9Y463); conditions: Compound concentration 1000.0 nM

| Structure (SMILES) | residual activity [1] | residual activity [2] | residual activity [3] | residual activity [4] | residual activity [5] | residual activity [6] | inhibition [7] | inhibition [8] | residual activity [9] | residual activity [10] | residual activity [11] | Ki [12] | residual activity [13] | residual activity [14] | residual activity [15] | residual activity [16] | residual activity [17] | residual activity [18] | residual activity [19] | residual activity [20] | other results |
| --- | --- | --- | --- | --- | --- | --- | --- | --- | --- | --- | --- | --- | --- | --- | --- | --- | --- | --- | --- | --- | --- |
| CC(C)(O)c1cncc(-c2nc3ccc(F)cc3n2C2CC2)c1 [MSD-CYP11B2] | 100% | 100% | 84% | 100% | 100% | 97% | 15.6% | 0.75% | 97% | 100% | 100% | 1540 nM | 100% | 92% | 100% | 100% | 100% | 100% | 100% | 100% | residual activity [21]: 100%; residual activity [22]: 76%; residual activity [23]: 100%; residual activity [24]: 72%; residual activity [25]: 100%; residual activity [26]: 100%; residual activity [27]: 100%; residual activity [28]: 100%; inhibition [29]: 100%; residual activity [30]: 100%; residual activity [31]: 100%; residual activity [32]: 100%; residual activity [33]: 100%; residual activity [34]: 100%; residual activity [35]: 100%; residual activity [36]: 100%; residual activity [37]: 97%; residual activity [38]: 100%; residual activity [39]: 44% |
| FC(F)(F)c1ccc2c(c1)nc(-c1cccnc1)n2C1CC1 [MSD-CYP11B2-Negative-control] | 100% | 100% | 100% | 99% | 94% | 100% | 60.4% | 6.79% | 100% | 94% | 100% | 1070 nM | 100% | 100% | 100% | 100% | 100% | 100% | 100% | 100% | residual activity [21]: 100%; residual activity [22]: 71%; residual activity [23]: 100%; residual activity [24]: 100%; residual activity [25]: 100%; residual activity [26]: 91%; residual activity [27]: 100%; residual activity [28]: 100%; inhibition [29]: 30.8%; residual activity [30]: 100%; residual activity [31]: 100%; residual activity [32]: 100%; residual activity [33]: 100%; residual activity [34]: 100%; residual activity [35]: 100%; residual activity [36]: 100%; residual activity [37]: 100%; residual activity [38]: 100%; residual activity [39]: 53% |
